Structures can show the parent of a compound that is named as a salt. Where two headings read alike, the source gives them in different places. Marks after values point to notes of the source that are not given here.
Tests used:
[1] = Partition coefficient of drugs and BAK in macroporous pHEMA gel; type: physicochemical; details: for Partition coefficient in macroporous pHEMA gel: 250 mg gel soaked in 12 mL drug or BAK solution in PBS, 15 days, mean ± SD, n = 3; for Partition coefficient smaller than that of BAK: macroporous pHEMA gel
Procedure: As indicated above, the absorption percentage of hydrophilic drug is small, whereas a significant amount of hydrophobic drug is uptake by the macroporous pHEMA gel. The high affinity of hydrophobic drug to the gel can be determined by measuring the partition coefficient of the drug in the gel. To measure the partition coefficient, a piece of macroporous pHEMA gel of 250 mg was soaked in 12 mL of drug or BAK solution. After 15 days of soaking, the concentration of the drug or BAK solution was measured by using UV-Vis spectrophotometry. The drug or BAK concentration after soaking indicated the amount of drug or BAK in reference to the initial concentration is that absorbed into the gel. The partition coefficient of timolol and dorzolamide in macroporous pHEMA gel is roughly 15 times smaller than that of BAK, which is excellent separation efficiency. In contrast, the partition coefficients of latanoprost and BAK are pretty high and the separation efficiency of the gel for this mixture is poor.

[2] = BAK/drug removal by macroporous pHEMA gel plug packed in syringe, 10 consecutive passes; type: physicochemical; details: for Drug adsorption percentage: first pass through the 10th pass, macroporous pHEMA gel; for Percentage removed/absorbed after passing through plug: 2.5 mL through 5 mm macroporous pHEMA gel, 1 cm syringe
Procedure: The four drugs were dissolved in PBS and mixed with BAK individually. The macroporous pHEMA hydrogel prepared as above, was used as the BAK removal filter and packed into the syringe, as described above. The experimental setup is that of FIG. 3. […] The solution that passed through the filter plug was collected and the concentration of drug/BAK was determined by measuring the UV-Vis spectra. The measured UV spectrum was a linear combination of the testing drug and BAK and thus, the individual concentration of the drug and BAK could be determined by applying a least square fit method as described in Kim et al. Int. J.

[3] = BAK/drug removal by crushed macroporous pHEMA particles packed in syringe, passes separated by 24 hours; type: physicochemical
Procedure: Macroporous pHEMA hydrogel as prepared above was dried in the oven of 80° C. and crushed into particles and the particles packed into the syringe. Two pieces of filter papers were placed at the bottom of the syringe to prevent the packing particles from leaking out. Particles facilitate packing of a hydrogel into the neck of the eye drop bottle where packing is amenable to high-throughput industrial scale loading of gel filters. […] The process was timed using a stopwatch from the moment of placing the weight to the last drop entered the beaker. The weight of the collected solution in the beaker was measured to calculate the flow rate through the pHEMA particles. […] The UV spectrum of the collected solution was measured and the individual concentration of the drug and BAK were determined by a least square fit method as described in Kim et al., Int. J. […] After each measurement, the bottom outlet of the syringe was sealed with parafilm to prevent dehydration of the packed pHEMA particles in the manner equivalent to sealing the eye drop bottle with the cap after use.

[4] = Partition coefficient in pHEMA particles prepared using SR9035 as cross-linker; type: physicochemical; details: 100 mg particles soaked in 3.5 mL solution, 9 days
Procedure: The partition coefficients of timolol, CMC and BAK in pHEMA particles prepared using SR9035 as cross-linker was measured. pHEMA particles (100 mg) were soaked in 3.5 mL of timolol, CMC and BAK solution, which concentration was 0.08 mg/mL, 0.5% and 2.4 mg/mL, respectively. After 9 days of soaking, the concentration of the drug or BAK solution was measured by using UV-Vis spectrophotometry. The drug or BAK concentration after soaking indicated the amount of drug or BAK that absorbed into the gel relative to the initial concentration. The partition coefficient of timolol and CMC in pHEMA particles is much smaller than that of BAK, and should have excellent separation efficiency.

[5] = Timolol/BAK separation by UV-initiated pHEMA particles (EGDMA) in eye drop bottle prototype; type: physicochemical
Source text: The sodium chloride promoted phase separation of the mixture. Small globules containing HEMA monomer and EGDMA was formed by continuously stirring the system at high rpm. […] In addition, the petri dish was covered to avoid water evaporation and oxygenation. After the polymerization, the pHEMA particles were separated from the solution by vacuum filtration method and washed with a large quantity of DI water to remove the unreacted monomers and other impurities. The particles were then dried in an oven of 80° C. […] The synthesized particles were packed in the prototype bottle and tested for their selectivity of separation of BAK from timolol. […] The drug/BAK solution was injected into the prototype bottle with a syringe. A clip was applied to the bottle to impose a constant pressure drop. […] The UV spectrum of the outlet solution was measured and the concentrations of the drug and BAK were determined by the least square fit method described in Kim et al., Int. J. Pharm., 2008, Apr. 2; 353(1-2):205-22. Five samples were successively removed through the plug.

[6] = Timolol/BAK separation by heat-initiated pHEMA particles in eye drop bottle prototype; type: physicochemical
Procedure: FIG. 24 indicates the percentages of BAK and timolol that were absorbed after the mixture in solution was passed through the heat-initiated pHEMA particles, shown in FIG. 18. […] The hydraulic permeability of the packing particles is 0.0459 Darcy which was measured as described, above. […] The size of the particles prepared by UV or heat-initiated polymerization is similar. […] The drug/BAK solution was injected into the prototype bottle with a syringe. […] The UV spectrum of the outlet solution was measured and the individual concentration of the drug and BAK was determined by a least square fit method as described in Kim et al., Int. J.

[7] = Timolol/BAK separation by pHEMA particles with SR454HP cross-linker in eye drop bottle prototype; type: physicochemical
Source text: (§1) More rigid and larger size particles create a larger void space for fluid to flow and improved hydraulic permeability. […] This would be undesirable because the plug is drug at the time of the instillation of the first drop but then could be partially or fully hydrated for subsequent instillations, depending on whether the plug retains the fluid in the interim time between successive instillations. […] During the UV curing, the mixture was continuously stirred by a 35×6 mm magnetic stirring bar at 70 rpm. In addition, the petri dish was covered to avoid water evaporation and oxygenation. After polymerization, the pHEMA gel were separated from the solution by vacuum filtration method and washed with a large quantity of DI water to remove the unreacted monomers and other impurities. The pHEMA gel was then dried in an oven of 80° C. and crushed into particles in a mortar. Selectivity of the separation of BAK from timolol was measured. […] A constant pressure drop was applied across the packed particles to maintain a constant flow rate through the plug. […] The UV spectrum of the outlet solution was measured and the concentrations of the drug and BAK were determined by the least square fit method described in Kim et al., Int. J. […] The tip of the prototype bottle was sealed with parafilm. […] The step was repeated 10 times over a total of 10 days.

[8] = Timolol/BAK separation by pHEMA particles with SR9035 cross-linker in eye drop bottle prototype; type: physicochemical
Source text: as §1

[9] = Latanoprost/BAK separation by crushed macroporous pHEMA particles in eye drop bottle prototype; type: physicochemical; details: all 10 runs over 10 days; 1.5 mL, 8 mm plug, particles pre-equilibrated with latanoprost
Procedure: The crushed macroporous pHEMA particles were prepared as described above. The particles were packed in the eye drop bottle prototype (FIG. 19) to test its selectivity of separation of BAK from latanoprost. The concentration of latanoprost and BAK prepared for the testing were both 0.03 mg/mL with PBS as the solvent. The drug/BAK solution was injected into the prototype bottle with a syringe. A clip was clipping on the bottle to create a constant pressure drop across the packing pHEMA particles of 8 mm in length. A volume of 1.5 mL of the drug/BAK solution was passed through the filter by squeezing the bottle. The UV spectrum of the outlet solution was measured and the individual concentration of the drug and BAK was determined by a least square fit method as described in Kim et al., Int. J. Pharm., 2008, Apr. 2; 353(1-2):205-22. The tip of the prototype bottle was sealed with parafilm. After 24 hours, another 1.5 mL drug/BAK solution was removed through the same filter and again to measure the concentrations of the drug and BAK. The step was repeated 10 times over a total of 10 days.

[10] = Binding of BAK and drugs to pHEMA matrix (general statement); type: physicochemical
[11] = Partition coefficient of BAK in pHEMA particles prepared by heat-initiated polymerization; type: physicochemical
[12] = 3 consecutive runs; hydrogel treated with 1% MAA
Procedure: The hydrogel was packed into the syringe as BAK removal filter and its separation efficiency of BAK from dexamethasone was tested in the same manner as the copolymer.

C[C@@H]1C[C@H]2[C@@H]3CCC4=CC(=O)C=C[C@]4(C)[C@@]3(F)[C@@H](O)C[C@]2(C)[C@@]1(O)C(=O)CO [Dexamethasone, dexamethasone]
Partition coefficient in macroporous pHEMA gel [1]: 33.53 ± 1.31

CCN[C@H]1C[C@H](C)S(=O)(=O)c2sc(S(N)(=O)=O)cc21 [Dorzolamide, dorzolamide hydrochloride]
Partition coefficient in macroporous pHEMA gel [1]: 7.59 ± 0.56
Partition coefficient smaller than that of BAK [1]: roughly 15 times
Drug adsorption percentage [2]: about 5%

CC(C)OC(=O)CCC/C=C\C[C@@H]1[C@@H](CC[C@@H](O)CCc2ccccc2)[C@H](O)C[C@@H]1O [Latanoprost, latanoprost]
Partition coefficient in macroporous pHEMA gel [1]: 90.18 ± 1.36
Percentage removed/absorbed after passing through plug ([2]; 10th pass): 30%
Percentage removed/absorbed after passing through plug ([2]; first run): 90%
Portion of drug absorbed ([3]; particles pre-equilibrated with the corresponding drug solution): only a very small portion

CC(C)(C)NC[C@H](O)COc1nsnc1N1CCOCC1 [Timolol, timolol maleate]
Partition coefficient in macroporous pHEMA gel [1]: 6.49 ± 0.37
Partition coefficient smaller than that of BAK [1]: roughly 15 times
Partition coefficient in pHEMA particles prepared by using SR9035 as cross-linker [4]: 5.59 ± 0.13^a
Drug adsorption percentage [2]: about 5%
Percentage removed ([5]; each of the 5 runs): about 1.5%
Percentage removed ([6]; 1st run): About 17%
Percentage removed ([6]; 10th run): about 3%
Percentage removed ([7]; 1st run): About 18%
Amount removed ([7]; 10th run): negligible
Percentage removed ([8]; 1st run): About 25%
Amount removed ([8]; after the 5th run): negligible

Benzalkonium chloride [BAK]
Partition coefficient in pHEMA particles prepared by using SR9035 as cross-linker [4]: ~300
Percentage removed/absorbed after passing through plug ([2]; 10th pass): 70-80%
Percentage removed/absorbed after passing through plug ([2]; first run): 100%
Percentage of BAK removed ([3]; all 10 passes, each separated by 24 hours, regardless of the drug in the solution): ~100%
Percentage of BAK removed [9]: ~100%
Percentage removed ([5]; 5th run, 1.5 mL, 8 mm plug): 30%
Percentage removed ([5]; first pass, 1.5 mL, 8 mm plug): Roughly 50%
Percentage removed ([6]; each of 10 passes carried out successively, 1.5 mL, 8 mm plug): ~100%
Percentage removed ([7]; after the 5th run): about 90%
Percentage removed ([7]; first 3-5th runs, 1.5 mL daily, 1.8 cm plug): ~100%
Percentage removed ([8]; 10th run): about 95%
Percentage removed ([8]; first 6th runs, 1.5 mL daily, 1.8 cm plug): ~100%
Adsorption time on pHEMA ([10]; compared with transit time through plug): < 3 s
Partition coefficient into the pHEMA matrix ([10]; depending on BAK concentration and structure of the pHEMA matrix): 100-500
Partition coefficient of BAK in pHEMA particles prepared by heat-initiated polymerization [11]: 200-250
Percentage of BAK removed [12]: ~100%

Reference: US10123904B2, “Preservative removal from eye drops” (University of Florida Research Foundation, Inc., priority 2014, dated 2018)
